Test results reported in PubChem BioAssay (NCI).
Values joined by “and” are separate entries in the source; they are usually repeats but may differ in a detail not shown here. Identical values can stand only once.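 GI50: concentration for 50% inhibition of growth. TGI: concentration producing complete growth inhibition.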

What was measured:
Experiment in all cases: NCI anticancer screen, dose series, 384-well format
[1] = system: MALME-3M melanoma
[2] = system: SNB-75 CNS
[3] = system: NCI/ADR-RES ovarian
[4] = system: SF-295 CNS
[5] = system: CAKI-1 renal
[6] = system: ACHN renal
[7] = system: OVCAR-4 ovarian
[8] = system: A498 renal
[9] = system: T-47D breast
[10] = system: SR leukemia
[11] = system: IGROV1 ovarian
[12] = system: KM12 colon
[13] = system: SK-MEL-28 melanoma
[14] = system: TK-10 renal
[15] = system: MCF7 breast
[16] = system: OVCAR-8 ovarian
[17] = system: SW-620 colon
[18] = system: NCI-H226 lung
[19] = system: NCI-H522 lung
[20] = system: HCC-2998 colon
[21] = system: NCI-H460 NSCLC
[22] = system: 786-0 renal
[23] = system: HOP-92 NSCLC
[24] = system: MDA-MB-231 breast
[25] = system: OVCAR-3 ovarian
[26] = system: COLO 205 colon
[27] = system: DU-145 prostate
[28] = system: NCI-H322M lung
[29] = system: SK-MEL-5 melanoma
[30] = system: SF-539 CNS
[31] = system: SK-MEL-2 melanoma
[32] = system: U251 glioblastoma
[33] = system: HOP-62 NSCLC
[34] = system: BT-549 breast
[35] = system: UO-31 renal
[36] = system: MDA-MB-468 breast
[37] = system: SK-OV-3 ovarian
[38] = system: LOX IMVI melanoma
[39] = system: PC-3 prostate
[40] = system: UACC-62 melanoma
[41] = system: HT29 colon
[42] = system: UACC-257 melanoma
[43] = system: RXF 393 renal
[44] = system: A549 NSCLC
[45] = system: SF-268 CNS
[46] = system: HS 578T breast
[47] = system: NCI-H23 lung
[48] = system: RPMI-8226 leukemia
[49] = system: K-562 leukemia
[50] = system: EKVX NSCLC
[51] = system: SN12C renal
[52] = system: HCT-116 colon
[53] = system: MOLT-4 leukemia
[54] = system: HL-60(TB) leukemia
[55] = system: M14 melanoma
[56] = system: OVCAR-5 ovarian
[57] = system: MDA-MB-435 melanoma
[58] = system: HCT-15 colon
[59] = system: SNB-19 CNS

## COCCNCCc1cccc(Nc2ncc3c(n2)-c2ccccc2C(c2ccccc2F)C3)c1 (stereo not drawn)
[1]
  GI50: 1.9 µM and 2.03 µM
  TGI: 3.31 µM and 3.47 µM
[2]
  GI50: 1.43 µM and 1.54 µM
  TGI: 2.75 µM and 2.88 µM
[3]
  GI50: 1.8 µM and 1.89 µM
  TGI: 3.21 µM and 3.38 µM
[4]
  GI50: 1.74 µM and 1.82 µM
  TGI: 3.14 µM and 3.23 µM
[5]
  GI50: 1.31 µM and 1 µM
  TGI: 2.61 µM and 2.35 µM
[6]
  GI50: 1.54 µM and 1.3 µM
  TGI: 2.89 µM and 2.6 µM
[7]
  GI50: 1.33 µM and 1.34 µM
  TGI: 2.63 µM and 2.64 µM
[8]
  GI50: 1.29 µM and 1.43 µM
  TGI: 2.57 µM and 2.76 µM
[9]
  GI50: 1.61 µM and 1.71 µM
  TGI: 2.97 µM and 3.1 µM
[10]
  GI50: 0.255 µM and 0.168 µM
  TGI: 0.421 µM and 0.358 µM
[11]
  GI50: 1.16 µM and 1.19 µM
  TGI: 2.39 µM and 2.43 µM
[12]
  GI50: 1.56 µM and 1.74 µM
  TGI: 2.92 µM and 3.15 µM
[13]
  GI50: 1.76 µM and 1.83 µM
  TGI: 3.15 µM and 3.24 µM
[14]
  GI50: 1.68 µM and 1.62 µM
  TGI: 3.06 µM and 2.99 µM
[15]
  GI50: 1.28 µM and 1.45 µM
  TGI: 2.59 µM and 2.82 µM
[16]
  GI50: 1.8 µM and 1.68 µM
  TGI: 3.22 µM and 3.08 µM
[17]
  GI50: 1.83 µM and 2.29 µM
  TGI: 3.24 µM and 3.77 µM
[18]
  GI50: 1.22 µM and 1.5 µM
  TGI: 2.47 µM and 2.84 µM
[19]
  GI50: 1.67 µM and 1.32 µM
  TGI: 3.05 µM and 2.61 µM
[20]
  GI50: 1.19 µM and 1.54 µM
  TGI: 2.44 µM and 2.9 µM
[21]
  GI50: 0.657 µM and 1.3 µM
  TGI: 1.86 µM and 2.65 µM
[22]
  GI50: 1.25 µM and 1.5 µM
  TGI: 2.52 µM and 2.85 µM
[23]
  GI50: 1.55 µM and 1.61 µM
  TGI: 2.9 µM and 2.97 µM
[24]
  GI50: 1.63 µM and 1.43 µM
  TGI: 3 µM and 2.75 µM
[25]
  GI50: 1.33 µM and 1.37 µM
  TGI: 2.63 µM and 2.68 µM
[26]
  GI50: 1.76 µM and 1.74 µM
  TGI: 3.17 µM and 3.15 µM
[27]
  GI50: 1.68 µM and 1.76 µM
  TGI: 3.07 µM and 3.17 µM
[28]
  GI50: 1.72 µM and 1.7 µM
  TGI: 3.11 µM and 3.09 µM
[29]
  GI50: 1.89 µM and 1.86 µM
  TGI: 3.31 µM and 3.28 µM
[30]
  GI50: 1.04 µM and 1.55 µM
  TGI: 2.32 µM and 2.91 µM
[31]
  GI50: 1.36 µM and 1.41 µM
  TGI: 2.65 µM and 2.73 µM
[32]
  GI50: 1.67 µM and 1.98 µM
  TGI: 3.07 µM and 3.44 µM
[33]
  GI50: 1.78 µM
  TGI: 3.18 µM and 3.19 µM
[34]
  GI50: 1.34 µM and 1.69 µM
  TGI: 2.63 µM and 3.08 µM
[35]
  GI50: 1.78 µM and 1.74 µM
  TGI: 3.18 µM and 3.14 µM
[36]
  GI50: 2.04 µM and 1.95 µM
  TGI: 3.47 µM and 3.37 µM
[37]
  GI50: 1.35 µM and 1.42 µM
  TGI: 2.65 µM and 2.76 µM
[38]
  GI50: 1.36 µM and 1.49 µM
  TGI: 2.65 µM and 2.83 µM
[39]
  GI50: 1.59 µM and 1.4 µM
  TGI: 2.96 µM and 2.72 µM
[40]
  GI50: 1.77 µM and 1.65 µM
  TGI: 3.18 µM and 3.04 µM
[41]
  GI50: 1.52 µM and 1.58 µM
  TGI: 2.89 µM and 2.98 µM
[42]
  GI50: 1.54 µM and 1.67 µM
  TGI: 2.9 µM and 3.06 µM
[43]
  GI50: 0.612 µM and 1.26 µM
  TGI: 1.84 µM and 2.52 µM
[44]
  GI50: 1.78 µM and 1.66 µM
  TGI: 3.21 µM and 3.07 µM
[45]
  GI50: 1.6 µM and 1.65 µM
  TGI: 2.96 µM and 3.03 µM
[46]
  GI50: 1.3 µM and 1.59 µM
  TGI: 2.57 µM and 2.94 µM
[47]
  GI50: 1.64 µM and 1.74 µM
  TGI: 3.02 µM and 3.13 µM
[48]
  GI50: 0.683 µM and 0.701 µM
  TGI: 1.86 µM and 1.94 µM
[49]
  GI50: 0.186 µM and 0.0758 µM
  TGI: 0.402 µM and 0.214 µM
[50]
  GI50: 1.55 µM
  TGI: 2.91 µM
[51]
  GI50: 1.31 µM and 0.906 µM
  TGI: 2.6 µM and 2.34 µM
[52]
  GI50: 1.49 µM and 1.74 µM
  TGI: 2.86 µM and 3.17 µM
[53]
  GI50: 0.67 µM and 0.543 µM
  TGI: 1.95 µM and 1.79 µM
[54]
  GI50: 0.563 µM and 1.95 µM
  TGI: 1.05 µM and 3.39 µM
[55]
  GI50: 1.85 µM and 2.14 µM
  TGI: 3.26 µM and 3.61 µM
[56]
  GI50: 1.79 µM and 1.8 µM
  TGI: 3.2 µM and 3.23 µM
[57]
  GI50: 1.88 µM and 1.91 µM
  TGI: 3.3 µM and 3.34 µM
[58]
  GI50: 1.2 µM and 1.3 µM
  TGI: 2.48 µM and 2.62 µM
[59]
  GI50: 1.92 µM and 1.93 µM
  TGI: 3.35 µM and 3.37 µM
